Source: US20260242789A1 (priority 2023, published 2026)
Counter-ions that a name gives are not always drawn. Like-named read-outs stand apart in the source and are kept apart here.

Legend:
[1] = biological target: T1, SAMD9^134-385 protein (SAMD9 tRNase) (Homo sapiens, UniProt Q5K651); assay type: biochemical; conditions: at 2×IC50 concentration, two hours of reaction
T1 construct: The recombinant SAMD9^134-385 or SAMD9^156-385 protein was expressed and purified from E. coli; SUMO (cleaved yes); 6xHis (cleaved yes); made in house; host or cells: E. coli
T1 sequence (Q5K651 134-385): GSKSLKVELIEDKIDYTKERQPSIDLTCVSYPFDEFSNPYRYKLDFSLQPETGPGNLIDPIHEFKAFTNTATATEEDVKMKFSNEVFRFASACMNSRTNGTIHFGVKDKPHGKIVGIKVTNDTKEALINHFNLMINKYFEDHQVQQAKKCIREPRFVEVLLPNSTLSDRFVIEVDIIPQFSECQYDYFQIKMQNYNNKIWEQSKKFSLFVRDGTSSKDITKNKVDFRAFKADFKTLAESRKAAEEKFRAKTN

[2] = biological target: T2, SAMD9 tRNase:tRNA complex (Homo sapiens, UniProt Q5K651); assay type: binding
T2 construct: The recombinant SAMD9^134-385 or SAMD9^156-385 protein was expressed and purified from E. coli; SUMO (cleaved yes); 6xHis (cleaved yes); made in house; host or cells: E. coli
T2 sequence (Q5K651 134-385): T1 sequence (Q5K651 134-385)

[3] = biological target: T1, SAMD9^134-385 protein (SAMD9 tRNase); assay: biochemical

Molecule | cleavage of yeast tRNA by SAMD9 tRNase [1] | disruption of the SAMD9 tRNase:tRNA complex ([2]; 2:1 molar ratio) | disruption of the SAMD9 tRNase:tRNA complex ([2]; 20:1 molar ratio) | IC50 [3] [µM] | disruption of the SAMD9 tRNase:tRNA complex ([2]; 100:1 molar ratio) | IC50 ([3]; dose response studies, cleavage of Phe17-Fret by SAMD9 tRNase, read-out: IC50) [µM]
Cc1cc(-c2ccc(/N=N/c3ccc4c(S(=O)(=O)O)cc(S(=O)(=O)O)c(N)c4c3O)c(C)c2)ccc1/N=N/c1ccc2c(S(=O)(=O)O)cc(S(=O)(=O)O)c(N)c2c1O [Evans Blue] | blocked | disrupted the complex | completely disrupted | 1.2 | – | –
Salvianolic acid B | blocked | – | minor effect | – | did not completely disrupt | 3
NCCOc1cc(C(=O)Nc2cc(OCCN)c3ccccc3n2)nc(C(=O)Nc2cc(OCCN)c3ccccc3n2)c1 [Pyridostatin TFA] | partially reduced | – | – | 7.8 | – | –
